Where “and” joins values, the source holds several entries; their conditions need not be identical. Equal entries are not always repeated. Where two headings read alike, the source gives them in different places.
Legend:
[1] = test system: FES^S700C HL-60 cells; assay: CD11b surface expression, neutrophil differentiation; assay type: cell-based, human; details: 100 nM; Supplementary Figure 12c; individual replicates; listed as WEL028
[2] = target: T1, DCAMKL1 (DCLK1) (Homo sapiens, UniProt O15075); assay: SelectScreen kinase assay
T1 sequence (O15075 1-740): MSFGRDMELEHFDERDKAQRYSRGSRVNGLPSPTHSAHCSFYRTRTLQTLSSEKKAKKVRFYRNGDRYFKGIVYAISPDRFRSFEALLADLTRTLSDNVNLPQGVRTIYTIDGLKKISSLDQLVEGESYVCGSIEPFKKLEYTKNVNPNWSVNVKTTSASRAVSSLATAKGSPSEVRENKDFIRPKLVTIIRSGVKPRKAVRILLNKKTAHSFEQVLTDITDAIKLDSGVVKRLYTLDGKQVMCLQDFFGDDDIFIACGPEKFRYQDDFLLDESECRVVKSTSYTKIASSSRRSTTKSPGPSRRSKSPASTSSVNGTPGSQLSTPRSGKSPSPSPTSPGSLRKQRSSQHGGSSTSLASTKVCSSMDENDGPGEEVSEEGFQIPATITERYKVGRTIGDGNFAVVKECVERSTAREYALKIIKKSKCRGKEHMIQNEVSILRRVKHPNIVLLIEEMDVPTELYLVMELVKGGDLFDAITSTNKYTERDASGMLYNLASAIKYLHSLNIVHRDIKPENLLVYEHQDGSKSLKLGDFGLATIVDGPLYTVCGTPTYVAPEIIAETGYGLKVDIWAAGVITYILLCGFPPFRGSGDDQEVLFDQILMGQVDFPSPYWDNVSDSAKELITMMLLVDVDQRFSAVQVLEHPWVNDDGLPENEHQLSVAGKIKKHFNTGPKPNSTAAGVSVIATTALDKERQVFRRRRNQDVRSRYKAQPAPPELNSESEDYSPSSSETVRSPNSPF
Description: (§1) Selectivity profiling assays were performed by the Invitrogen SelectScreen™ Services. […] The concentration of ATP was selected to be equal to the KM, unless indicated otherwise.

[3] = target: CDK2/cyclin A (Homo sapiens, UniProt P24941); assay: SelectScreen kinase assay
Description: as §1

[4] = target: GRK7 (Homo sapiens, UniProt Q8WTQ7); assay: SelectScreen kinase assay; details: 1 h, 1 μM WEL028, 1 h preincubation
Description: as §1

[5] = target: ROCK1 (Homo sapiens, UniProt Q13464); assay: SelectScreen kinase assay
Description: as §1

[6] = target: FLT1 (VEGFR1) (Homo sapiens, UniProt P17948); assay: SelectScreen kinase assay
Description: as §1

[7] = target: T2, MLCK (MLCK2) (Homo sapiens, UniProt Q32MK0); assay: SelectScreen kinase assay
T2 sequence (Q32MK0 1-819): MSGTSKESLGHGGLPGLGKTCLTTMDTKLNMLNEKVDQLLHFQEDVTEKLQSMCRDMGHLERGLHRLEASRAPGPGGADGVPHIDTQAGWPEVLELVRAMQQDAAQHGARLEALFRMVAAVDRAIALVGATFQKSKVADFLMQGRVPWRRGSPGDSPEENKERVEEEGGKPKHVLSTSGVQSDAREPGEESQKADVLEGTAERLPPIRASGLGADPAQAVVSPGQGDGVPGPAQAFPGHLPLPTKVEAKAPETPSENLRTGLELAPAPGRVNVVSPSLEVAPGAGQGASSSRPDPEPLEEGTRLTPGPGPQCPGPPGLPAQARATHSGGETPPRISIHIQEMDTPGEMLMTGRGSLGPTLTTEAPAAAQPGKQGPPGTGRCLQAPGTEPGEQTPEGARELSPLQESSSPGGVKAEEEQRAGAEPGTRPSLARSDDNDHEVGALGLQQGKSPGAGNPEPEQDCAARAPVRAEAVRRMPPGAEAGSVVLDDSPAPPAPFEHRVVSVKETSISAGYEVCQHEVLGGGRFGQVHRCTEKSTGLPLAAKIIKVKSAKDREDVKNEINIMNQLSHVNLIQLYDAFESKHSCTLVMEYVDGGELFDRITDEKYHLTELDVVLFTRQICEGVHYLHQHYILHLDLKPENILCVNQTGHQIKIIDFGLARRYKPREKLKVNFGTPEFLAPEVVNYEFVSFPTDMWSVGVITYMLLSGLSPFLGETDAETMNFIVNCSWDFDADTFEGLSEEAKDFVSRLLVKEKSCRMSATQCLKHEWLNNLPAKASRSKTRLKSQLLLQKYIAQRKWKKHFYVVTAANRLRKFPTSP
Description: as §1

[8] = target: MAP4K4 (HGK) (Homo sapiens, UniProt O95819); assay: SelectScreen kinase assay; details: 1 h, 1 μM WEL028, 1 h preincubation
Description: as §1

[9] = target: ROCK2 (Homo sapiens, UniProt O75116); assay: SelectScreen kinase assay; details: 1 h, 1 μM WEL028, 1 h preincubation
Description: as §1

[10] = target: CDC42 BPG (MRCKG) (Homo sapiens, UniProt Q6DT37); assay: SelectScreen kinase assay
Description: as §1

[11] = target: T3, ULK3 (Homo sapiens, UniProt Q6PHR2); assay: SelectScreen kinase assay
T3 sequence (Q6PHR2 1-472): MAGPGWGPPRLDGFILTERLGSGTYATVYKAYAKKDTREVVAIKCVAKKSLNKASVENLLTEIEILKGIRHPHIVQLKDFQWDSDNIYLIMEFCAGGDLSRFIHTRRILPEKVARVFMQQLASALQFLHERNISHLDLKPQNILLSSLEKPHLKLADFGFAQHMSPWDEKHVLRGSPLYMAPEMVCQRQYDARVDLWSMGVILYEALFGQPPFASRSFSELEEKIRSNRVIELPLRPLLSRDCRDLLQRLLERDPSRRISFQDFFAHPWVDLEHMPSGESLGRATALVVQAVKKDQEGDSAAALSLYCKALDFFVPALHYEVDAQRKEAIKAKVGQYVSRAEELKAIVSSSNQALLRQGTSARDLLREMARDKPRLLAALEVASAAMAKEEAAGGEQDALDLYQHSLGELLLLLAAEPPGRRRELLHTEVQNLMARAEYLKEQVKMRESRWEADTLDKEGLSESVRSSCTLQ
Description: as §1

[12] = target: ACVR1 (ALK2) (Homo sapiens, UniProt Q04771); assay: SelectScreen kinase assay
Description: as §1

[13] = 1 h, 1 μM WEL028, 1 h preincubation

Sequence of FLT1 (VEGFR1) (P17948 27-1338): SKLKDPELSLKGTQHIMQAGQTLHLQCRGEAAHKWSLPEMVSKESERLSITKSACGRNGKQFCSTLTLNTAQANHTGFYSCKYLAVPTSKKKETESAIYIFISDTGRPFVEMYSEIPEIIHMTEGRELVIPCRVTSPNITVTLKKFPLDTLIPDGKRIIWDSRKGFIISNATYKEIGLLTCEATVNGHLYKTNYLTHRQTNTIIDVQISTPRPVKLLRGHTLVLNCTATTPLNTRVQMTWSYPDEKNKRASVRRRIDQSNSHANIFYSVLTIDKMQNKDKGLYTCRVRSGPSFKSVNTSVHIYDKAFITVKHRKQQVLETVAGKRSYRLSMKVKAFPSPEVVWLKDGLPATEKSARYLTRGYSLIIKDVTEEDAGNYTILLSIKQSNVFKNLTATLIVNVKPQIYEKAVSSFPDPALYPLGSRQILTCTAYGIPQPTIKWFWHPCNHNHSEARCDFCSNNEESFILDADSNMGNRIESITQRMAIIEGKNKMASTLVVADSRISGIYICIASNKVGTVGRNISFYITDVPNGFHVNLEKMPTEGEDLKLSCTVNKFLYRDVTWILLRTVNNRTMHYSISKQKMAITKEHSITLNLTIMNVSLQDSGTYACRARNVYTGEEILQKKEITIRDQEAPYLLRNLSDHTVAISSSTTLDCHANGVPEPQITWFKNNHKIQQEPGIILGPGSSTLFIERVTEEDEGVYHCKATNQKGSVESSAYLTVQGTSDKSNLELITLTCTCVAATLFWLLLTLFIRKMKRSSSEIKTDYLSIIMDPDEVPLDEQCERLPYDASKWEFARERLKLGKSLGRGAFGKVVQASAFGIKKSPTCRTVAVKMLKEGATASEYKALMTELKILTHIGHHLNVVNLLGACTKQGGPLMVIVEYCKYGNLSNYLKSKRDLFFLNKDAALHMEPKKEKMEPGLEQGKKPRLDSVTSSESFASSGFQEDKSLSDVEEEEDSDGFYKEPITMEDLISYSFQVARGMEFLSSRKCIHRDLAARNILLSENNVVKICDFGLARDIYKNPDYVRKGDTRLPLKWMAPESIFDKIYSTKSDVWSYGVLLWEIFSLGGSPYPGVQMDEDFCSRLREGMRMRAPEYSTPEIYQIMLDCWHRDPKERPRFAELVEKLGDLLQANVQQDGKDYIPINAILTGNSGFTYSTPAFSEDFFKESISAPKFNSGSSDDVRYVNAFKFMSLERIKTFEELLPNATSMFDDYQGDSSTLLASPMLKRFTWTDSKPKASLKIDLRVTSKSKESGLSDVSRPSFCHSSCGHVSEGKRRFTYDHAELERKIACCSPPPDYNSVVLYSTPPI
Sequence of ROCK1 (Q13464 whole entry): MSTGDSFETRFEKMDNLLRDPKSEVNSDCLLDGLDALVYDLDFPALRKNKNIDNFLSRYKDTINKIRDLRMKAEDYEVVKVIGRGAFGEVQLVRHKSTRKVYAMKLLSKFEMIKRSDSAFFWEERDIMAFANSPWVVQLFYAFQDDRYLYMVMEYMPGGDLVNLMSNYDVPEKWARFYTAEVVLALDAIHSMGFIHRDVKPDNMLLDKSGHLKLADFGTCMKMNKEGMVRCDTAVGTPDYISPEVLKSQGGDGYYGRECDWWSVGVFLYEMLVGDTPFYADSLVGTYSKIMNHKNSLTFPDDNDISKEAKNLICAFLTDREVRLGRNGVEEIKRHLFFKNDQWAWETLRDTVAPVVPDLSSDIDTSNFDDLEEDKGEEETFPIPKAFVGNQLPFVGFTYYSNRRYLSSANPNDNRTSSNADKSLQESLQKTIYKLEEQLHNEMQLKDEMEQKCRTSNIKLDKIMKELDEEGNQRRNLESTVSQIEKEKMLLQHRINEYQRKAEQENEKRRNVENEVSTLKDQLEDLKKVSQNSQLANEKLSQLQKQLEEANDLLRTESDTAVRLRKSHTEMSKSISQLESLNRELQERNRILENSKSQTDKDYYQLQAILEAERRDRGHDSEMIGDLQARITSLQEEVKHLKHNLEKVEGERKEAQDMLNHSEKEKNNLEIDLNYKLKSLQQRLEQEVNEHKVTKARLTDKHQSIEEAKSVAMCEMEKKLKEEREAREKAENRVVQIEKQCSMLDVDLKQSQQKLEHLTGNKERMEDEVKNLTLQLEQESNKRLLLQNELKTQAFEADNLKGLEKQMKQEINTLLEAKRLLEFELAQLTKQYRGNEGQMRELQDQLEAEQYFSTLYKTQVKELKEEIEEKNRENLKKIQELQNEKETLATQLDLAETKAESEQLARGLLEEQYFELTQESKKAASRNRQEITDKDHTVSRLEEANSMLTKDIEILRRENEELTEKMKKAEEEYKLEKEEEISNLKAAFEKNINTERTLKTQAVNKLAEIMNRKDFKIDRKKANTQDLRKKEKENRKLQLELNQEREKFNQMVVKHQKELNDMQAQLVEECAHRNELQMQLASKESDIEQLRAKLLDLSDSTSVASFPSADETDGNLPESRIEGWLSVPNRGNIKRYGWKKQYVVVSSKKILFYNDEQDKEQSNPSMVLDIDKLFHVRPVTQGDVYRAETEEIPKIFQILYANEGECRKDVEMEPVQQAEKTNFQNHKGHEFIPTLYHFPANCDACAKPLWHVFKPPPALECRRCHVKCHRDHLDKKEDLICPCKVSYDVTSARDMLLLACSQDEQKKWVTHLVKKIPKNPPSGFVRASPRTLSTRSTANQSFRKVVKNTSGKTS
Sequence of ACVR1 (ALK2) (Q04771 21-509): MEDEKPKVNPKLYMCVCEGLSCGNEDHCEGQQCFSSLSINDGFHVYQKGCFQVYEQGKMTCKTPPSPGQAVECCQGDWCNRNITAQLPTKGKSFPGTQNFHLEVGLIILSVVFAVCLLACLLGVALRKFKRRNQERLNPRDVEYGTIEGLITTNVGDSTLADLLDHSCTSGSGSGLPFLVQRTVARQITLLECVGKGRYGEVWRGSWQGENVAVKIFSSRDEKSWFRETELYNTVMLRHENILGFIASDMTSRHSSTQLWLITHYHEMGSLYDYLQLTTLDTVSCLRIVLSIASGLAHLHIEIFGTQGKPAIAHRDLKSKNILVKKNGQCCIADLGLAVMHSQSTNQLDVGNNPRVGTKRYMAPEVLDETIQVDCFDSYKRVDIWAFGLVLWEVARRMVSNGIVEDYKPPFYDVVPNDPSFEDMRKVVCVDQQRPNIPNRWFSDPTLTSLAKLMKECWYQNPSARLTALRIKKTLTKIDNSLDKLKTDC
Sequence of CDC42 BPG (MRCKG) (Q6DT37 whole entry): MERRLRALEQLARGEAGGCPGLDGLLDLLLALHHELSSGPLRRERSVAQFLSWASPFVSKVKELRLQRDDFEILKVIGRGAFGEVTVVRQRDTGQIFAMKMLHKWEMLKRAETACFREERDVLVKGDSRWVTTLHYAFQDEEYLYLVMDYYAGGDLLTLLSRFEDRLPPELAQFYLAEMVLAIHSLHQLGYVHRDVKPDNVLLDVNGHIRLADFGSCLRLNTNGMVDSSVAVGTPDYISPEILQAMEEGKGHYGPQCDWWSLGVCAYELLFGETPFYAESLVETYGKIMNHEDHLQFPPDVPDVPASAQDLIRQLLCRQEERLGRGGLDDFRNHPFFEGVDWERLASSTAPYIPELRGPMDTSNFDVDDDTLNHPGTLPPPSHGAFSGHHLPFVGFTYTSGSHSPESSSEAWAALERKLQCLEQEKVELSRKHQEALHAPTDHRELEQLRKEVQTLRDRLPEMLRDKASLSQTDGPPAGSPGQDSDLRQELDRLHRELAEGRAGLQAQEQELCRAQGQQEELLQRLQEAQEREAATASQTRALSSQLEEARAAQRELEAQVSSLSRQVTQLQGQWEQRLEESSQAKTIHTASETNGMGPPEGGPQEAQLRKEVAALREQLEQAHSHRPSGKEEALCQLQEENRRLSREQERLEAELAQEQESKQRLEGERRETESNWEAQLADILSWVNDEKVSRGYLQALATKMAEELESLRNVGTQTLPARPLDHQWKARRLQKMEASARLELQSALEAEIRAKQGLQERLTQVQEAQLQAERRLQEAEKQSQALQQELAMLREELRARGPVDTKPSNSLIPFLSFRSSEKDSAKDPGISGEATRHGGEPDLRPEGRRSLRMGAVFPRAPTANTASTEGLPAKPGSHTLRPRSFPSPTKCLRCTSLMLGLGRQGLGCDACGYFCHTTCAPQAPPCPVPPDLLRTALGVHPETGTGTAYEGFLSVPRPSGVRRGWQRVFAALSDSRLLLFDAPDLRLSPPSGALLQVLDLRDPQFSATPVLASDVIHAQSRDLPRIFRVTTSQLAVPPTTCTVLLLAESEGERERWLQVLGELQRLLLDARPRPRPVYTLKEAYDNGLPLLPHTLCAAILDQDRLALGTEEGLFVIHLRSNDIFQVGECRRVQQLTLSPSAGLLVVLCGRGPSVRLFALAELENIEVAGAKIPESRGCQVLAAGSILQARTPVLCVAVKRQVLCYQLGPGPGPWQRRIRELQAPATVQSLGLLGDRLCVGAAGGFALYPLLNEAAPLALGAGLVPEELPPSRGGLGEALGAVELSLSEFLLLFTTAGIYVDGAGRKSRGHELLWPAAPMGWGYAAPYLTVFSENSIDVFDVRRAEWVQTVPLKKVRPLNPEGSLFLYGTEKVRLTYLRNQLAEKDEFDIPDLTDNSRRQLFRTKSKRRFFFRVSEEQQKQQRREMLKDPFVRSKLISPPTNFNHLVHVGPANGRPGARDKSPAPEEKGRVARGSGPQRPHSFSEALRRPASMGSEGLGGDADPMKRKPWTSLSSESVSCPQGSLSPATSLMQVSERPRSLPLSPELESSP

For C#CCOc1ccc(Nc2ncc(Cl)c(Nc3ccccc3NC(=O)C=C)n2)c(OC)c1 [Compound 6], the “CD11b-positive cells (%)” value [1] was 93.1005% and 92.0572% and 93.2155%, the “Inhibition (%)” value ([2]; 1 μM WEL028, 1 h preincubation) was 4% and the “Inhibition at 1 µM (%)” value ([2]; DCAMKL1 (DCLK1), 1 µM, ZLYTE, ATP Km app, listed as WEL028, 1 µM) was 5%. The inhibition at 1 µM ([2]; read-out: Inhibition at 1 µM (%), DCAMKL1 (DCLK1), 1 µM, ZLYTE, ATP Km app) was 3%, the “Inhibition (%)” value ([3]; 1 μM WEL028, 1 h preincubation) was -3% and the “Inhibition at 1 µM (%)” value ([3]; CDK2/cyclin A, 1 µM, ZLYTE, ATP Km app, listed as WEL028, 1 µM) was -5% and 0%. For the same compound, the inhibition at 1 µM [4] was 11%, the “Inhibition at 1 µM (%)” value ([5]; 1 µM, ZLYTE, ATP Km app, listed as WEL028, 1 µM) was -6% and 0% and the inhibition at 1 µM [5, 13] was -3%. The inhibition at 1 µM [6, 13] was 36%, the “Inhibition at 1 µM (%)” value ([6]; FLT1 (VEGFR1), 1 µM, ZLYTE, ATP Km app, listed as WEL028, 1 µM) was 31% and the inhibition at 1 µM ([6]; read-out: Inhibition at 1 µM (%), FLT1 (VEGFR1), 1 µM, ZLYTE, ATP Km app) was 42%. For the same compound, the inhibition at 1 µM [7, 13] was 9%, the “Inhibition at 1 µM (%)” value ([7]; MLCK (MLCK2), 1 µM, LanthaScreen Binding, listed as WEL028, 1 µM) was 8% and the inhibition at 1 µM ([7]; read-out: Inhibition at 1 µM (%), MLCK (MLCK2), 1 µM, LanthaScreen Binding) was 9%. For the same compound, the inhibition at 1 µM [8] was 7%, the inhibition at 1 µM [9] was 0% and the inhibition at 1 µM ([10]; 1 h) was -1%. For the same compound, the inhibition at 1 µM ([10]; read-out: Inhibition at 1 µM (%)) was -1%, the “Inhibition (%)” value ([11]; 1 μM WEL028, 1 h preincubation) was 26% and the “Inhibition at 1 µM (%)” value ([11]; 1 µM, LanthaScreen Binding, listed as WEL028, 1 µM) was 27%. The inhibition at 1 µM ([11]; read-out: Inhibition at 1 µM (%), 1 µM, LanthaScreen Binding) was 25%, the inhibition at 1 µM [12, 13] was 2% and the inhibition at 1 µM ([12]; read-out: Inhibition at 1 µM (%), ACVR1 (ALK2), 1 µM, LanthaScreen Binding) was 3%.
